Values after ≈ are worked out from the molar mass of the structure shown.
Legend:
Enterovirus A71 = assay: Antiviral activity against human EV71 infected in human RD cells assessed as inhibition of cytopathic effect by microscopy based analysis; assay type: functional, organism-based; settings: Enterovirus A
Enterococcus faecalis [1] = assay: Ratio of MBC to MIC for Enterococcus faecalis; assay type: functional
[2] = Selectivity index, ratio of CC50 for human RD cells to IC50 for human EV71 infected in human RD cells; assay type: toxicity, cell-based; settings: read-out: Ratio CC50/IC50
Human rhinovirus sp. [3] = assay: Antiviral activity against Human rhinovirus A2 infected in human HeLa-RH cells assessed as inhibition of cytopathic effect by microscopy based analysis; assay type: functional, organism-based
Zika virus = assay: Antiviral activity against Zika virus infected in african green monkey Vero E6 cells assessed as inhibition of cytopathic effect by microscopy based analysis; assay type: functional, organism-based; settings: Vero C1008
Chikungunya virus = assay: Antiviral activity against CHIKV infected in African green monkey Vero A cells assessed as inhibition of cytopathic effect by microscopy based analysis; assay type: functional, organism-based
Staphylococcus aureus [4] = assay: Ratio of MBC to MIC for Staphylococcus aureus CIP 54127; assay type: functional
Enterococcus faecalis [5] = assay: Antibacterial activity against Enterococcus faecalis assessed as reduction in bacterial growth by micro-broth dilution method; assay type: functional
Escherichia coli [6] = assay: Bactericidal activity against Escherichia coli CIP 53154; assay type: functional
Staphylococcus aureus [7] = assay: Antibacterial activity against Staphylococcus aureus CIP 54127 assessed as reduction in bacterial growth by micro-broth dilution method; assay type: functional
[8] = Cytotoxicity against human HeLa-RH cells; assay type: toxicity, cell-based
Yellow fever virus = assay: Antiviral activity against Yellow fever virus infected in human Huh-7 cells assessed as inhibition of cytopathic effect by microscopy based analysis; assay type: functional, organism-based
Escherichia coli [9] = assay: Antibacterial activity against Escherichia coli CIP 53154 assessed as reduction in bacterial growth by micro-broth dilution method; assay type: functional
Pseudomonas aeruginosa [10] = assay: Ratio of MBC to MIC for Pseudomonas aeruginosa CIP A22; assay type: functional
Pseudomonas aeruginosa [11] = assay: Bactericidal activity against Pseudomonas aeruginosa CIP A22; assay type: functional
[12] = Cytotoxicity against human RD cells; assay type: toxicity, cell-based
Enterococcus faecalis [13] = assay: Bactericidal activity against Enterococcus faecalis; assay type: functional
Human rhinovirus sp. [14] = assay: Antiviral activity against Human rhinovirus B14 infected in human HeLa-RH cells assessed as inhibition of cytopathic effect by microscopy based analysis; assay type: functional, organism-based
[15] = Cytotoxicity against human Huh-7 cells; assay type: toxicity, cell-based
[16] = Cytotoxicity against African green monkey Vero A cells; assay type: toxicity, cell-based; settings: chlorocebus sabaeus
[17] = Cytotoxicity against African green monkey Vero E6 cells; assay type: toxicity, cell-based, Vero C1008; settings: chlorocebus sabaeus
[18] = Selectivity index, ratio of CC50 for African green monkey Vero A cells to IC50 for CHIKV infected in African green monkey Vero A cells; assay type: toxicity; settings: read-out: Ratio CC50/IC50
Pseudomonas aeruginosa [19] = assay: Antibacterial activity against Pseudomonas aeruginosa CIP A22 assessed as reduction in bacterial growth by micro-broth dilution method; assay type: functional
Staphylococcus aureus [20] = assay: Bactericidal activity against Staphylococcus aureus CIP 54127; assay type: functional
Escherichia coli [21] = assay: Ratio of MBC to MIC for Escherichia coli CIP 53154; assay type: functional
[22] = Selectivity index, ratio of CC50 for human HeLa-RH cells to IC50 for Human rhinovirus B14 infected in human HeLa-RH cells; assay type: toxicity, cell-based; settings: read-out: Ratio CC50/IC50
[23] = Selectivity index, ratio of CC50 for human Huh-7 cells to IC50 for Yellow fever virus infected in human Huh-7 cells; assay type: toxicity, cell-based; settings: read-out: Ratio CC50/IC50
[24] = Selectivity index, ratio of CC50 for African green monkey Vero E6 cells to IC50 for Zika virus infected in african green monkey Vero E6 cells; assay type: toxicity; settings: read-out: Ratio CC50/IC50
SARS-CoV-2 = assay: Antiviral activity against SARS-CoV-2 HCoV-19/Egypt/NRC-03/2020 infected in African green monkey Vero E6 cells assessed as inhibition of virus induced cytopathic effect pre-infected with virus for 1 hr followed by compound addition and measured after 72 hrs by crystal violet staining based analysis; assay type: functional, organism-based; settings: Severe acute respiratory syndrome coronavirus 2, HCoV-19/Egypt/NRC-03/2020, Vero C1008
Staphylococcus aureus [25] = assay: Antibacterial activity against Staphylococcus aureus; assay type: functional
Pseudomonas aeruginosa [26] = assay: Antibacterial activity against Pseudomonas aeruginosa; assay type: functional
[27] = Selectivity index, ratio of CC50 for human HeLa-RH cells to IC50 for Human rhinovirus A2 infected in human HeLa-RH cells; assay type: toxicity, cell-based; settings: read-out: Ratio CC50/IC50

Compound: Cc1cc(=O)n(Cc2cn(Cc3ccc(O)c(C=O)c3)nn2)c2ccc(Br)cc12
- IC50 (Enterovirus A71): 33.3 µM
- Ratio (Enterococcus faecalis [1]): 1
- selectivity ratio [2]: 1.33
- IC50 (Human rhinovirus sp. [3]): > 1.23 µM
- IC50 (Zika virus): > 100 µM
- IC50 (Chikungunya virus): 98.5 µM
- Ratio (Staphylococcus aureus [4]): 1
- MIC (Enterococcus faecalis [5]): 340 µM (≈ 154 µg/mL)
- MBC (Escherichia coli [6]): 11000 µM (≈ 5000 µg/mL)
- MIC (Staphylococcus aureus [7]): 11000 µM (≈ 5000 µg/mL)
- CC50 [8]: 8.61 µM
- IC50 (Yellow fever virus): > 100 µM
- MIC (Escherichia coli [9]): 5520 µM (≈ 2500 µg/mL)
- Ratio (Pseudomonas aeruginosa [10]): 1
- MBC (Pseudomonas aeruginosa [11]): 2760 µM (≈ 1250 µg/mL)
- CC50 [12]: 44.1 µM
- MBC (Enterococcus faecalis [13]): 340 µM (≈ 154 µg/mL)
- IC50 (Human rhinovirus sp. [14]): > 100 µM
- CC50 [15]: 29.6 µM
- CC50 [16]: > 100 µM
- CC50 [17]: 52.7 µM
- selectivity ratio [18]: > 1.02
- MIC (Pseudomonas aeruginosa [19]): 2760 µM (≈ 1250 µg/mL)
- MBC (Staphylococcus aureus [20]): 11000 µM (≈ 5000 µg/mL)
- Ratio (Escherichia coli [21]): 2

Compound: Cc1cc(=O)n(Cc2cn(Cc3ccc(O)c(C=O)c3)nn2)c2ccc(F)cc12
- IC50 (Enterovirus A71): 29.9 µM
- Ratio (Enterococcus faecalis [1]): 2
- selectivity ratio [2]: 1.44
- IC50 (Human rhinovirus sp. [3]): > 1.23 µM
- IC50 (Zika virus): > 100 µM
- IC50 (Chikungunya virus): > 100 µM
- Ratio (Staphylococcus aureus [4]): 1
- MIC (Enterococcus faecalis [5]): 200 µM (≈ 78.5 µg/mL)
- MBC (Escherichia coli [6]): 6370 µM (≈ 2500 µg/mL)
- MIC (Staphylococcus aureus [7]): 3190 µM (≈ 1250 µg/mL)
- CC50 [8]: 14.5 µM
- IC50 (Yellow fever virus): > 100 µM
- MIC (Escherichia coli [9]): 6370 µM (≈ 2500 µg/mL)
- Ratio (Pseudomonas aeruginosa [10]): 2.01
- MBC (Pseudomonas aeruginosa [11]): 3190 µM (≈ 1250 µg/mL)
- CC50 [12]: 43 µM
- MBC (Enterococcus faecalis [13]): 400 µM (≈ 157 µg/mL)
- IC50 (Human rhinovirus sp. [14]): > 100 µM
- CC50 [15]: 27.8 µM
- CC50 [16]: > 100 µM
- CC50 [17]: 55 µM
- MIC (Pseudomonas aeruginosa [19]): 3190 µM (≈ 1250 µg/mL)
- MBC (Staphylococcus aureus [20]): 3190 µM (≈ 1250 µg/mL)
- Ratio (Escherichia coli [21]): 1

Compound: CCOP(=O)(OCC)C(Nc1ccc(I)cc1)c1cc(Cn2cc(Cn3c(=O)cc(C)c4cc(F)ccc43)nn2)ccc1O (stereo unspecified)
- IC50 (Enterovirus A71): > 100 µM
- Ratio (Enterococcus faecalis [1]): 1
- selectivity ratio [22]: > 3.06
- IC50 (Human rhinovirus sp. [3]): > 33.3 µM
- IC50 (Zika virus): > 100 µM
- IC50 (Chikungunya virus): 33 µM
- Ratio (Staphylococcus aureus [4]): 2
- MIC (Enterococcus faecalis [5]): 50 µM (≈ 36.6 µg/mL)
- MBC (Escherichia coli [6]): 1710 µM (≈ 1250 µg/mL)
- MIC (Staphylococcus aureus [7]): 110 µM (≈ 80.5 µg/mL)
- CC50 [8]: > 33.3 µM
- IC50 (Yellow fever virus): > 33.3 µM
- MIC (Escherichia coli [9]): 860 µM (≈ 629 µg/mL)
- Ratio (Pseudomonas aeruginosa [10]): 1
- MBC (Pseudomonas aeruginosa [11]): 1710 µM (≈ 1250 µg/mL)
- CC50 [12]: > 100 µM
- MBC (Enterococcus faecalis [13]): 50 µM (≈ 36.6 µg/mL)
- IC50 (Human rhinovirus sp. [14]): 10.9 µM
- CC50 [15]: 12.1 µM
- CC50 [16]: > 100 µM
- CC50 [17]: > 100 µM
- selectivity ratio [18]: > 3.03
- MIC (Pseudomonas aeruginosa [19]): 1710 µM (≈ 1250 µg/mL)
- MBC (Staphylococcus aureus [20]): 220 µM (≈ 161 µg/mL)
- Ratio (Escherichia coli [21]): 1.99

Compound: CCOP(=O)(OCC)C(Nc1ccccc1Cl)c1cc(Cn2cc(Cn3c(=O)cc(C)c4cc(Br)ccc43)nn2)ccc1O (stereo unspecified)
- IC50 (Enterovirus A71): > 100 µM
- Ratio (Enterococcus faecalis [1]): 1
- IC50 (Human rhinovirus sp. [3]): > 0.41 µM
- IC50 (Zika virus): 71.5 µM
- IC50 (Chikungunya virus): > 100 µM
- Ratio (Staphylococcus aureus [4]): 1
- MIC (Enterococcus faecalis [5]): 60 µM (≈ 42.1 µg/mL)
- selectivity ratio [23]: 2.02
- MBC (Escherichia coli [6]): 440 µM (≈ 308 µg/mL)
- MIC (Staphylococcus aureus [7]): 440 µM (≈ 308 µg/mL)
- CC50 [8]: 9.88 µM
- IC50 (Yellow fever virus): 9.91 µM
- MIC (Escherichia coli [9]): 440 µM (≈ 308 µg/mL)
- Ratio (Pseudomonas aeruginosa [10]): 4.05
- MBC (Pseudomonas aeruginosa [11]): 1780 µM (≈ 1250 µg/mL)
- CC50 [12]: > 100 µM
- MBC (Enterococcus faecalis [13]): 60 µM (≈ 42.1 µg/mL)
- IC50 (Human rhinovirus sp. [14]): > 33.3 µM
- CC50 [15]: 20 µM
- selectivity ratio [24]: > 1.4
- CC50 [16]: 7.58 µM
- CC50 [17]: > 100 µM
- MIC (Pseudomonas aeruginosa [19]): 1780 µM (≈ 1250 µg/mL)
- MBC (Staphylococcus aureus [20]): 440 µM (≈ 308 µg/mL)
- Ratio (Escherichia coli [21]): 1

Compound: Fc1ccc2nc(C(F)(F)F)cc(OCc3cn(-c4ccccc4Cl)nn3)c2c1
- IC50 (SARS-CoV-2): 60 µM

Compound: CCOP(=O)(OCC)C(Nc1ccc(C)cc1)c1cc(Cn2cc(Cn3c(=O)cc(C)c4cc(Br)ccc43)nn2)ccc1O (stereo unspecified)
- IC50 (Enterovirus A71): > 100 µM
- Ratio (Enterococcus faecalis [1]): 1
- selectivity ratio [22]: 2.73
- IC50 (Human rhinovirus sp. [3]): > 0.41 µM
- IC50 (Zika virus): > 100 µM
- IC50 (Chikungunya virus): 56.1 µM
- Ratio (Staphylococcus aureus [4]): 1
- MIC (Enterococcus faecalis [5]): 60 µM (≈ 40.8 µg/mL)
- MBC (Escherichia coli [6]): 930 µM (≈ 633 µg/mL)
- MIC (Staphylococcus aureus [7]): 460 µM (≈ 313 µg/mL)
- CC50 [8]: 29.1 µM
- IC50 (Yellow fever virus): > 100 µM
- MIC (Escherichia coli [9]): 460 µM (≈ 313 µg/mL)
- Ratio (Pseudomonas aeruginosa [10]): 4
- MBC (Pseudomonas aeruginosa [11]): 1840 µM (≈ 1250 µg/mL)
- CC50 [12]: > 100 µM
- MBC (Enterococcus faecalis [13]): 60 µM (≈ 40.8 µg/mL)
- IC50 (Human rhinovirus sp. [14]): 10.7 µM
- CC50 [15]: 20 µM
- CC50 [16]: > 100 µM
- CC50 [17]: > 33.3 µM
- selectivity ratio [18]: > 1.78
- MIC (Pseudomonas aeruginosa [19]): 1840 µM (≈ 1250 µg/mL)
- MBC (Staphylococcus aureus [20]): 460 µM (≈ 313 µg/mL)
- Ratio (Escherichia coli [21]): 2.02

Compound: COC(=O)C(NC(=O)c1ccccc1)n1cc(Cn2c(=O)cc(C(=O)N[C@H](C)C(=O)OC)c3ccccc32)nn1 (stereo partly specified)
- MIC (Staphylococcus aureus [25]): 39 µg/mL (≈ 71.4 µM)
- MIC (Pseudomonas aeruginosa [26]): 78 µg/mL (≈ 143 µM)

Compound: C[C@@]1(O)[C@H](O)[C@@H](CO)O[C@H]1n1ccc2c(N)ncnc21 [BETA-2'-C-METHYL-7-DEAZA-ADENOSINE]
- IC50 (Zika virus): 20 µM
- selectivity ratio [23]: 3.07
- IC50 (Yellow fever virus): 16.3 µM
- CC50 [15]: 50 µM
- selectivity ratio [24]: > 5
- CC50 [17]: > 100 µM

Compound: Cc1cc(CCCOc2c(C)cc(-c3noc(C(F)(F)F)n3)cc2C)on1 [PLECONARIL]
- selectivity ratio [22]: > 500
- selectivity ratio [27]: > 227
- IC50 (Human rhinovirus sp. [3]): 0.44 µM
- CC50 [8]: > 100 µM
- IC50 (Human rhinovirus sp. [14]): 0.2 µM

Compound: CCOC(=O)/C=C/[C@H](C[C@@H]1CCNC1=O)NC(=O)[C@@H](CC(=O)[C@@H](NC(=O)c1cc(C)on1)C(C)C)Cc1ccc(F)cc1 [RUPINTRIVIR]
- IC50 (Enterovirus A71): 1.87 µM
- selectivity ratio [2]: > 53.5
- CC50 [12]: > 100 µM

From ChEMBL document CHEMBL5505983, “Design, synthesis, and molecular modeling studies of novel 2-quinolone-1,2,3-triazole-α-aminophosphonates hybrids as dual antiviral and antibacterial agents” (Eur J Med Chem, 2024)
